The text below walks through data of patent publication US20140094465A1, “Compounds as S-Nitrosoglutathione Reductase Inhibitors” (N30 PHARMACEUTICALS, INC., priority 2011, published 2014).

Read-outs that look alike come from different tables or passages of the source.

The term IC50 denotes the concentration that gives 50% inhibition. As usually defined, the bioavailability is dose-corrected exposure relative to a reference, in per cent.

For data set [1], the target named is T1, S-nitrosoglutathione reductase (GSNOR) (Homo sapiens, UniProt P11766).
T1 construct: made in house; host or cells: E. coli
The data set is described as follows: GSNOR assay (inhibition of GSNOR activity, NADH absorbance at 340 nm). The class given is biochemical. In a few lines:
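Recombinant GSNOR purified from E. coli, tag removed. Final conditions: 100 mM NaPO4 pH 7.4, 0.240 mM GSNO, 0.300 mM NADH, 0.5 μg/mL enzyme, 1% DMSO; NADH loss followed as 340 nm absorbance change over 3 min at 25 °C. Compounds 100–0.003 μM, triplicate; IC50 by curve analysis.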

A short description of data set [2]: Mouse pharmacokinetic (PK) study. Type of data set: in vivo. Particulars: male, BALB/c, plasma, po, 10 mg/kg, male BALB/c mice, 2 mg/kg IV, 10 mg/kg PO, read-out: oral bioavailability (% F). An excerpt: The mouse was used to determine the pharmacokinetics of compounds of the invention. This species is widely used to assess the bioavailability of compounds by administering both oral (PO) and intravenous (IV) test articles. Efficacy of the compounds of the invention was compared by assessing plasma exposure in male BALB/c mice either via IV or PO administration at the times of peak activity.
Compounds of the invention were reconstituted in a phosphate buffered saline (PBS)/10% Solutol (HS 15) clear solution resulting in a concentration of 0.2 mg/mL and administered to mice (2 mg/kg) as a single IV dose. Animals were dosed via the lateral tail vein. Blood samples were collected at designated time points (0.083, 0.25, 0.5, 1, 2, 4, 8, 16, 24 hours) by cardiac puncture under isoflurane anesthesia (up to 1 mL blood per animal). The blood was collected into tubes containing Li-Heparin. The blood samples were kept on ice until centrifugation within approximately 30 minutes of collection. The plasma was transferred into labeled polypropylene tubes and frozen at −70° C. until analyzed by LC/MS/MS.
The compounds of the invention were reconstituted in 40% Propylene Glycol/40% Propylene Carbonate/20% of a 5% Sucrose clear solution resulting in a concentration of 2 mg/mL and administered to mice (10 mg/kg) as a single oral dose via gavage. Blood samples were collected at 0.25, 0.5, 1, 2, 4, 8, 12, 16, 20 and 24 hours post dose by cardiac puncture under isoflurane anesthesia. The blood was collected in tubes containing Li-Heparin. The blood samples were kept on ice until centrifugation within approximately 30 minutes of collection. The plasma was transferred into labeled polypropylene tubes and frozen at −70° C. until analyzed by LC/MS/MS.
Plasma samples at each timepoint were analyzed using a LC-MS/MS with a lower limit of quantification (LLOQ) of 1 ng/mL. Plasma was analyzed to determine the amount of the compound of the invention in each sample and regression curves generated for each compounds of the invention in the relevant matrixes.
WinNonlin analysis was used for calculating PK parameters for both the IV and PO administrations:
PK parameters for IV portion—AUClast; AUCINF; T1/2; Cl; Vss; Cmax; MRT
PK parameters for PO portion—AUClast; AUCINF; T1/2; Cmax; Cl, MRT.
In addition to the above PK parameters, bioavailability (% F) was calculated.

The next data set has as its target T2, GSNOR and NAD+ (Homo sapiens, UniProt P11766).
T2 construct: made in house; host or cells: E. coli
Nature of the data set: X-ray crystallography of inhibitor bound to GSNOR and NAD+, distance measurement. The note with it: crystal structure bound to GSNOR and NAD+; O atom of hydroxyl to C atom of carbonyl. An excerpt:
Single crystal x-ray diffraction is a method useful to understanding the 3-dimensional structure of the binding pocket. The solved crystal structures offer significant information about the GSNOR binding pocket and the interactions of the inhibitors within the binding site. The crystal structure of the ternary complex of GSNOR, NAD+, and Compound IV-10 (Table 4, Example 1) (4-(7-hydroxy-4-oxo-2-(trifluoromethyl)-4H-chromen-3-yl)benzoic acid) was solved. The enzyme-ligand complex crystallized as a homodimer with Compound IV-10 binding to each GSNOR monomer. The key pharmacophores identified from the ternary complex of GSNOR inhibitor with GSNOR and NAD+ are the hydroxyl group on the bicyclic ring of Compound IV-10, which hydrogen bonds to histidine 66, cysteine 44, cysteine 173 and threonine 46. This hydroxyl group is also part of the Zn complex to histidine 66, cysteine 44, and cysteine 173 and threonine 46. The carboxylic acid of Compound IV-10 hydrogen bonds to the glutamine 111 and forms a salt bridge with lysine 283. […]
Once the crystal structures were solved, a distance measurement was made. […] For the second crystal structure with Compound V-1 bound to GSNOR and NAD+, the distance between the hydroxyl group and the carboxylic acid found to be 12.34 Å (measured in the same manner as described above). […]

T2 sequence (P11766 whole entry): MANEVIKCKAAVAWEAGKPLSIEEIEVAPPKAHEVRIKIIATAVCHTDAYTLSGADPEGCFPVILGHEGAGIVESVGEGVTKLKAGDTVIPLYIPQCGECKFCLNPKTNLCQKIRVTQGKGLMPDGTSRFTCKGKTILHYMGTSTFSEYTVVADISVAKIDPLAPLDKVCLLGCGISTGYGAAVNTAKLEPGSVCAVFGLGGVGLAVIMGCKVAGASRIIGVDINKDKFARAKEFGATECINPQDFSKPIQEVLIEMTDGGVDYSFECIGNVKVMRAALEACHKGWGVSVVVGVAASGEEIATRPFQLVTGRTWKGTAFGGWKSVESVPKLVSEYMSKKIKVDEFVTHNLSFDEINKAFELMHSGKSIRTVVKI
T1 sequence (P11766 whole entry): as above

Regarding `O=C(O)c1ccc(-c2c(C(F)(F)F)oc3cc(O)ccc3c2=O)cc1` [IV-10, 4-(7-hydroxy-4-oxo-2-(trifluoromethyl)-4H-chromen-3-yl)benzoic acid], in data set [1] (GSNOR inhibitor activity, Tables 1-6, read-out: IC50 range), the IC50 was below 100 nM. In addition, in data set [2], the bioavailability was above 9%. The “distance between the hydroxyl group and the carboxylic acid” value at GSNOR and NAD+ was found to be 12.07 Å.

In the case of `O=C(O)c1ccc(Oc2c(C(F)(F)F)oc3cc(O)ccc3c2=O)cc1` [Compound V-1, 4-(7-hydroxy-4-oxo-2-(trifluoromethyl)-4H-chromen-3-yloxy)benzoic acid], the concentration for half-maximal inhibition (IC50) in data set [1] lay within 100 to 1000 nM. For the same compound, the “distance between the hydroxyl group and the carboxylic acid” value at GSNOR and NAD+ was determined as 12.34 Å.
